The values below come from patent US20150105386A1, “4-(4-PYRIDINYL)-BENZAMIDES AND THEIR USE AS ROCK ACTIVITY MODULATORS” (AbbVie Deutschland GmbH & Co KG, priority 2007, published 2015).

The assay addresses T1, hROCK-2 (Homo sapiens, UniProt O75116).
T1 construct: purchased Upstate
Nature of the assay: ROCK-2 Assay (33P-ATP FlashPlate kinase assay, biotinylated S6 peptide). The note with it: hROCK-2 0.8 nM, 5 μM ATP, 1.5 μM biotinylated S6 peptide, room temperature, 60 min. The format is biochemical. The procedure:
The reaction is stopped by addition of 150 μl of 0.1 M EDTA in Dulbecco's PBS. 170 μl from each well are loaded onto a FlashPlate (PerkinElmer) and incubated at room temperature for 30 min.

Where only a bound is given, the exact number is not on record here.

T1 sequence (O75116 whole entry): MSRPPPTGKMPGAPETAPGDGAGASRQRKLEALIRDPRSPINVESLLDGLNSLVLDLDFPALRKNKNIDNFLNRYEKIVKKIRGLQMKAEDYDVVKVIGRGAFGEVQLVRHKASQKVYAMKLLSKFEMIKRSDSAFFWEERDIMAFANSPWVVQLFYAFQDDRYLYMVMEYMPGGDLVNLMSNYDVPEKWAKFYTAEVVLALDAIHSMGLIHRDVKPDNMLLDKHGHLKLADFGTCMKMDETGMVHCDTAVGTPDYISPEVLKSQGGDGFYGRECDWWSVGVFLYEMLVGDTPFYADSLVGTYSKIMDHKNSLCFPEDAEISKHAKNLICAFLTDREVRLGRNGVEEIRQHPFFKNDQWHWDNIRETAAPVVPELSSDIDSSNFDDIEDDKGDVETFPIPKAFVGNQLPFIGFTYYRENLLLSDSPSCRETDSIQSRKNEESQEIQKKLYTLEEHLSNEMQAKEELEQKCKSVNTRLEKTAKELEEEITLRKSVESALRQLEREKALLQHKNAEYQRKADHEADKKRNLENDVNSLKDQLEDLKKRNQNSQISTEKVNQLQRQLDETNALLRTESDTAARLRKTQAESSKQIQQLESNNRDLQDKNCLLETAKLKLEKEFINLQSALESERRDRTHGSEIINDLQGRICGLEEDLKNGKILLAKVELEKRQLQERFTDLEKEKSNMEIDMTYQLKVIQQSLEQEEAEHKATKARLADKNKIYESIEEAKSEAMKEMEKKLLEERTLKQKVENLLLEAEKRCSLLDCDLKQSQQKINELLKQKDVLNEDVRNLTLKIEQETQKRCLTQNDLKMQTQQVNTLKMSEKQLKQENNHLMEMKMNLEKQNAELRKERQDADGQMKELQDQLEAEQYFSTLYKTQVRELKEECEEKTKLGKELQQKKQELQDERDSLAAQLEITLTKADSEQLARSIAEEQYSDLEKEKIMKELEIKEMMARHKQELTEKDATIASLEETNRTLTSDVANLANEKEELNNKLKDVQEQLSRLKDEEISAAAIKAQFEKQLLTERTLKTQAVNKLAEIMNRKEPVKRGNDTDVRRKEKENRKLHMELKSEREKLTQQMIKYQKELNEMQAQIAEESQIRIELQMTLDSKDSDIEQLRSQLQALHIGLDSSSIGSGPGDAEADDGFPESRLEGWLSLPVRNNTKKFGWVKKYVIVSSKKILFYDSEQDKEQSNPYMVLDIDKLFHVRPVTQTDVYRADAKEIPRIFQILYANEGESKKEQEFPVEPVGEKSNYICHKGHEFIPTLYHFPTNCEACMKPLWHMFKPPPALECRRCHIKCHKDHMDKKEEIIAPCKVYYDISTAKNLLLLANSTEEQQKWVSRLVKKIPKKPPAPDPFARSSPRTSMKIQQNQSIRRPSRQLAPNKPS

As a reminder, the Ki is a dissociation constant, usually derived from enzyme kinetics or from competition with a known ligand. Read a high Ki as a looser hold on the target. As to `CC(C)Oc1cccc(C(C)NC(=O)c2ccc(-c3ccncc3)cc2)c1` (stereo not drawn) [Example 152, N-[1-(3-isopropoxy-phenyl)-ethyl]-4-pyridin-4-yl-benzamide], the Ki is under 50 nM. Regarding `COc1ccccc1C(CO)NC(=O)c1ccc(-c2ccncc2C)cc1` (stereo not drawn) [Example 171, N-[2-hydroxy-1-(2-methoxy-phenyl)-ethyl]-4-(3-methyl-pyridin-4-yl)-benzamide], the Ki fell in the range of 50 to 500 nM. Next, `O=C(NC(Cc1ccccc1)c1ccccc1)c1ccc(-c2ccncc2)cc1` (stereo not drawn) [Example 48, N-(1,2-diphenylethyl)-4-pyridin-4-ylbenzamide]: 50 to 500 nM. In the case of `CCC(NC(=O)c1ccc(-c2ccncc2)cc1)c1ccccc1` (stereo not drawn) [Example 75, N-(1-phenylpropyl)-4-pyridin-4-ylbenzamide] it was under 50 nM; in that of `Cc1ccc(C(CO)NC(=O)c2ccc(-c3ccncc3)cc2)c(C)c1` (stereo not drawn) [Example 40, N-[1-(2,4-dimethylphenyl)-2-hydroxyethyl]-4-pyridin-4-ylbenzamide], 50 to 500 nM; in that of `COc1cccc([C@@H](C)NC(=O)c2ccc(-c3ccncc3F)cc2C)c1` [Example 246, 4-(3-fluoro-pyridin-4-yl)-N—[(R)-1-(3-methoxy-phenyl)-ethyl]-2-methyl-benzamide], under 50 nM.

Compound `O=C(NC(c1ccccc1)c1ccc(Cl)cc1)c1ccc(-c2ccncc2)cc1` (stereo not drawn) [Example 49, N-[(4-chlorophenyl)(phenyl)methyl]-4-pyridin-4-ylbenzamide] registered a Ki of 50 to 500 nM. Next, `CC(C)COc1cccc(C(C)NC(=O)c2ccc(-c3ccncc3)cc2)c1` (stereo not drawn) [Example 153, N-[1-(3-isobutoxy-phenyl)-ethyl]-4-pyridin-4-yl-benzamide]: under 50 nM. Next, `Cc1ccc(C(C)NC(=O)c2ccc(-c3ccncc3)cc2)o1` (stereo not drawn) [Example 71]: 50 to 500 nM. Next, `C[C@@H](NC(=O)c1ccc(-c2ccncc2)cc1)c1cccc(C(F)(F)F)c1` [Example 87, 4-pyridin-4-yl-N-{(1R)-1-[3-(trifluoromethyl)phenyl]ethyl}benzamide]: under 50 nM. Regarding `COc1cc(-c2ccncc2)ccc1C(=O)N[C@H](C)c1cccc2ccccc12` [Example 106, 2-methoxy-N—((R)-1-naphthalen-1-yl-ethyl)-4-pyridin-4-yl-benzamide], the Ki is under 50 nM.

Turning to `COc1cc(-c2ccncc2)ccc1C(=O)N[C@H](C)c1ccc2ccccc2c1` [Example 107, 2-methoxy-N—((R)-1-naphthalen-2-yl-ethyl)-4-pyridin-4-yl-benzamide], the Ki was in the range of 50 to 500 nM. In the case of `COc1cc(-c2ccncc2)ccc1C(=O)N[C@@H](C)c1ccccc1` [Example 114, 2-methoxy-N—((S)-1-phenyl-ethyl)-4-pyridin-4-yl-benzamide] it was 50 to 500 nM; in that of `COc1ccc(C(C)NC(=O)c2ccc(-c3ccncc3)cc2)c2ccccc12` (stereo not drawn) [Example 189, N-[1-(4-methoxy-naphthalen-1-yl)-ethyl]-4-pyridin-4-yl-benzamide], 50 to 500 nM; in that of `COc1cccc([C@@H](C)NC(=O)c2ccc(-c3ccncc3)cc2Cl)c1` [Example 243, 2-chloro-N—[(R)-1-(3-methoxy-phenyl)-ethyl]-4-pyridin-4-yl-benzamide], under 50 nM. Next, `COc1cccc([C@H](C)NC(=O)c2ccc(-c3ccncc3)cc2OC)c1` [Example 130, 2-methoxy-N—[(S)-1-(3-methoxy-phenyl)-ethyl]-4-pyridin-4-yl-benzamide]: 50 to 500 nM; `COc1cccc([C@@H](C)NC(=O)c2ccc(-c3ccncc3)cc2OC)c1` [Example 103, 2-methoxy-N—[(R)-1-(3-methoxy-phenyl)-ethyl]-4-pyridin-4-yl-benzamide]: under 50 nM. In the case of `O=C(N[C@H](CO)Cc1ccc(O)cc1)c1ccc(-c2ccncc2)cc1` [Example 15, N-[(1S)-2-hydroxy-1-(4-hydroxybenzyl)ethyl]-4-pyridin-4-ylbenzamide] it was 50 to 500 nM.
